Target: T1, α4β1 integrin (Homo sapiens, UniProt P05556+P13612)
T1 construct: endogenous in cells; host or cells: Ramos cells
Assay: Adhesion of calcein-labeled Ramos cells to CS1 (fibronectin) peptide conjugated ovalbumin
Format: cell-based
Conditions: Ramos cell adhesion to CS1 conjugated ovalbumin
How it was run: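 Calcein AM-labelled Ramos cells (2.5×10^5/well) with compound, up to 100 μM, added to plates coated with CS1 peptide–ovalbumin (0.5 μg/ml) and blocked with 3% BSA. Binding buffer TBS pH 7.5 with 1 mM each MgCl2, CaCl2, MnCl2; 30 min, 37 °C. After washes, adherent cells lysed and read fluorometrically; […].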

[1] = Table 7, dose required to give 50% inhibition
[2] = Table 5, dose required to give 50% inhibition

T1 sequence (P13612 34-1032): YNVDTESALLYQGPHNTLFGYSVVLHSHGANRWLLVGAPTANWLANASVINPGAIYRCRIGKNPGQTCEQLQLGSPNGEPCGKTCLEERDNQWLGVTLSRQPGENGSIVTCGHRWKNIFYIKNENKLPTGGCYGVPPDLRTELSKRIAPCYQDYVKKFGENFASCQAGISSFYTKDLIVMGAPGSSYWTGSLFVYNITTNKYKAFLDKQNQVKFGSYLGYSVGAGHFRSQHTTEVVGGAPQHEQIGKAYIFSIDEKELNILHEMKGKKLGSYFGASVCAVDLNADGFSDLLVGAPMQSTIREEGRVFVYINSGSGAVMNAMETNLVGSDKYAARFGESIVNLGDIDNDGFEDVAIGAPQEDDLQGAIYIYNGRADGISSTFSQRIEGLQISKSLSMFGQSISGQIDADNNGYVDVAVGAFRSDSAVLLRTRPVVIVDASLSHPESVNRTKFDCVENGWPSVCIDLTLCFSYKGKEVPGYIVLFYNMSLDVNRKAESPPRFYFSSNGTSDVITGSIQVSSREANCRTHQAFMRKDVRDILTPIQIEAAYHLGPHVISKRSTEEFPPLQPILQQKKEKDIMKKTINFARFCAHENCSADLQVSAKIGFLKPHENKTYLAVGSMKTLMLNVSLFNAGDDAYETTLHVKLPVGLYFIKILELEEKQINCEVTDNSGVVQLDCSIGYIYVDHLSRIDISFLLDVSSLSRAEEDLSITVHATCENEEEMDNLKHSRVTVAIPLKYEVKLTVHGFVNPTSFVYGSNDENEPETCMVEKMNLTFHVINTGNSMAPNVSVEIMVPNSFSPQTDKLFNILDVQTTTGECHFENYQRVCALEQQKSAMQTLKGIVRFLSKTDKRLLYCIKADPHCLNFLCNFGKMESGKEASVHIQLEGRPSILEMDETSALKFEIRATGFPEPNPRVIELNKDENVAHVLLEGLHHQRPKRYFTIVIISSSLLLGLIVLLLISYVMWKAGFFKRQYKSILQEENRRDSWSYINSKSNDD
T1 sequence (P05556 21-798): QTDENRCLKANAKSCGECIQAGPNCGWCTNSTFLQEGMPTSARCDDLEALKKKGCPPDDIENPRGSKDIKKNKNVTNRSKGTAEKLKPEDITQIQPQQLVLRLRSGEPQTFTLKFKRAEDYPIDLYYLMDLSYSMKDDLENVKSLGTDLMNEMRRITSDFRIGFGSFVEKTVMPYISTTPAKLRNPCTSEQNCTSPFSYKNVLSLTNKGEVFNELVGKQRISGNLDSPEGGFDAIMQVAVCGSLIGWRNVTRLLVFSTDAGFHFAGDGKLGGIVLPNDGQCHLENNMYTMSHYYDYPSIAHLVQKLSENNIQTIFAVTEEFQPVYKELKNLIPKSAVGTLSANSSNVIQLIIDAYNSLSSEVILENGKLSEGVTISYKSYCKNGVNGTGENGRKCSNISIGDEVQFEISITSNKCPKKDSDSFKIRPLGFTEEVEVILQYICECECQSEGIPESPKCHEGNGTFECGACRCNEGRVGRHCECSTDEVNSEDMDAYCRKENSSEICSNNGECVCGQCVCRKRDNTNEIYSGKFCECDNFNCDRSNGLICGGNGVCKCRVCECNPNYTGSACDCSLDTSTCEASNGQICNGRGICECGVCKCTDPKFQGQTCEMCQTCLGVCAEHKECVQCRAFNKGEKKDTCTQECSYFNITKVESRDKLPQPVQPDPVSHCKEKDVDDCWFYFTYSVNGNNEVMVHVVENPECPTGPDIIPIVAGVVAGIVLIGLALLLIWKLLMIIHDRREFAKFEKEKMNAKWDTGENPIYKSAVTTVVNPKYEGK

SMILES: CCOc1cccc(Cl)c1Cn1c(C)c(C)c(O)c(NC(=O)N[C@@H](CC(=O)O)c2cccc(OC(C)C)c2)c1=O [(3S)-3-[({[1-(2-chloro-6-ethoxybenzyl)-4-hydroxy-5,6-dimethyl-2-oxo-1,2-dihydropyridin-3-yl]amino}carbonyl)amino]-3-(3-isopropoxyphenyl)propanoic acid]
- IC50 [1]: 3 nM

SMILES: CCOc1ccc([C@H](CC(=O)O)NC(=O)Nc2c(O)c3c(n(Cc4ccccc4Cl)c2=O)CCC3)cc1OCC
- IC50 (Table 6, 30 minutes at 37° C.): 3 nM

SMILES: CCCc1cn(Cc2ccc(Cl)cc2)c(=O)c(NC(=O)N[C@@H](CC(=O)O)c2ccc(OCC)c(OCC)c2)c1O
- IC50 [2]: 15 nM

SMILES: CCOc1ccc([C@H](CC(=O)O)NC(=O)Nc2c(O)c(C)cn(Cc3c(Cl)cccc3OC)c2=O)cc1OCC [(3S)-3-[({[1-(2-chloro-6-methoxybenzyl)-4-hydroxy-5-methyl-2-oxo-1,2-dihydropyridin-3-yl]amino}carbonyl)amino]-3-(3,4-diethoxyphenyl)propanoic acid]
- IC50 (Table 6, 30 minutes at 37° C.): 2 nM

SMILES: Cc1ccc([C@H](CC(=O)O)NC(=O)Nc2c(Nc3ccccn3)ccn(Cc3ccccc3Cl)c2=O)cc1
- IC50 (Table 3, 30 minutes at 37° C.): 15 nM

SMILES: Cc1ccc([C@H](CC(=O)O)NC(=O)Nc2c(O)ccn(Cc3cc(F)ccc3Cl)c2=O)cc1
- IC50 [2]: 14 nM

SMILES: Cc1ccc([C@H](CC(=O)O)NC(=O)Nc2cccn(Cc3cc(Cl)ccc3Cl)c2=O)cc1
- IC50 (Table 4, 30 minutes at 37° C.): 150 nM

SMILES: CCOc1ncc([C@H](CC(=O)O)NC(=O)Nc2c(O)c3c(n(Cc4ccccc4Cl)c2=O)CCC3)c(OCC)n1
- IC50 [1]: 15 nM

SMILES: Cc1ccc(C[C@@H](CC(=O)O)NC(=O)Nc2c(O)ccn(Cc3ccccc3Cl)c2=O)cc1
- IC50 [2]: 30000 nM

SMILES: COc1ccc(Cl)c(Cn2cc(C)c(O)c(NC(=O)N[C@@H](CC(=O)O)c3ccc(C)cc3)c2=O)c1 [(3S)-3-[({[1-(2-chloro-5-methoxybenzyl)-4-hydroxy-5-methyl-2-oxo-1,2-dihydropyridin-3-yl]amino}carbonyl)amino]-3-(4-methylphenyl)propanoic acid]
- IC50 [1]: 3 nM

SMILES: CCc1ccc([C@H](CC(=O)O)NC(=O)Nc2c(O)c(C)cn(Cc3ccccc3Cl)c2=O)cc1
- IC50 [1]: 30 nM

SMILES: O=C(O)C[C@H](NC(=O)Nc1cccc(NCc2cccs2)c1)c1ccc2c(c1)OCO2
- IC50 (Table 4, 30 minutes at 37° C.): 5000 nM

SMILES: Cc1cc(C)cc([C@H](CC(=O)O)NC(=O)Nc2cccn(Cc3ccccc3Cl)c2=O)c1
- IC50 (Table 4, 30 minutes at 37° C.): 100 nM

SMILES: COc1cc([C@H](CC(=O)O)NC(=O)Nc2cccn(Cc3ccccc3Br)c2=O)cc(OC)c1OC
- IC50 (Table 4, 30 minutes at 37° C.): 80 nM

SMILES: Cc1cccc([C@H](CC(=O)O)NC(=O)Nc2c(O)c3c(n(Cc4c(C)cccc4Cl)c2=O)CCC3)c1
- IC50 [1]: 4 nM

SMILES: COc1cc([C@H](CC(=O)O)NC(=O)Nc2c(O)c3ccccc3n(Cc3ccccc3Cl)c2=O)ccc1C
- IC50 (Table 6, 30 minutes at 37° C.): 14 nM

SMILES: O=C(O)CC(NC(=O)Nc1c(O)ccn(Cc2ccccc2Cl)c1=O)c1ccco1 (centres unmarked)
- IC50 [2]: 50 nM

SMILES: Cc1ccc([C@H](CC(=O)O)NC(=O)Nc2c(Nc3cc(C)no3)ccn(Cc3ccccc3Cl)c2=O)cc1
- IC50 (Table 3, 30 minutes at 37° C.): 15 nM

SMILES: Cc1ccc([C@H](CC(=O)O)NC(=O)Nc2c(O)c3c(n(Cc4ccccc4Cl)c2=O)CCC3)cc1 [(3S)-3-[({[1-(2-chlorobenzyl)-4-hydroxy-2-oxo-2,5,6,7-tetrahydro-1H-cyclopenta[b]pyridin-3-yl]amino}carbonyl)amino]-3-(4-methylphenyl)propanoic acid]
- IC50 [2]: 3 nM

SMILES: COc1c(Cn2cccc(NC(=O)N[C@@H](CC(=O)O)c3ccc(C)cc3)c2=O)cccc1C(C)(C)C
- IC50 [2]: 2500 nM

SMILES: CCOc1cc([C@H](CC(=O)O)NC(=O)Nc2c(O)c3c(n(Cc4c(C)cccc4Cl)c2=O)CCC3)c(Cl)c(OCC)c1Cl
- IC50 [1]: 500 nM

SMILES: Cc1ccc([C@H](CC(=O)O)NC(=O)Nc2c(O)ccn(Cc3cccc(C(F)(F)F)c3)c2=O)cc1
- IC50 [2]: 17 nM

SMILES: CCOc1cccc(Cl)c1Cn1cc(C)c(O)c(NC(=O)N[C@@H](CC(=O)O)c2ccc3ccn(C)c3c2)c1=O [(3S)-3-[({[1-(2-chloro-6-ethoxybenzyl)-4-hydroxy-5-methyl-2-oxo-1,2-dihydropyridin-3-yl]amino}carbonyl)amino]-3-(1-methyl-1H-indol-6-yl)propanoic acid]
- IC50 [1]: 3 nM

SMILES: CCOc1cc([C@H](CC(=O)O)NC(=O)Nc2c(O)c3c(n(Cc4ccccc4Cl)c2=O)CCC3)ccc1Cl
- IC50 [1]: 30 nM

SMILES: Cc1ccc([C@H](CC(=O)O)NC(=O)Nc2c(-c3ccccn3)nc(C)n(Cc3ccccc3)c2=O)cc1
- IC50 (Table 3, 30 minutes at 37° C.): 25 nM
- IC50 (Table 4, 30 minutes at 37° C.): 25 nM

SMILES: CCOc1ccc([C@H](CC(=O)O)NC(=O)Nc2c(O)ccn(Cc3ccccc3Cl)c2=O)cc1OCC [(3S)-3-[({[1-(2-chlorobenzyl)-4-hydroxy-2-oxo-1,2-dihydropyridin-3-yl]amino}carbonyl)amino]-3-(3,4-diethoxyphenyl)propanoic acid]
- IC50 [2]: 0.8 nM

SMILES: Cc1cn(Cc2ccccc2Cl)c(=O)c(NC(=O)N[C@@H](CC(=O)O)c2cccc(C(F)F)c2)c1O [(3S)-3-{[({1-[(2-chlorophenyl)methyl]-4-hydroxy-5-methyl-2-oxo-1,2-dihydro-3-pyridinyl}amino)carbonyl]amino}-3-[3-(difluoromethyl)phenyl]propanoic acid]
- IC50 [1]: 20 nM

SMILES: CCCc1cn(Cc2c(Cl)cccc2OC)c(=O)c(NC(=O)N[C@@H](CC(=O)O)c2cccc(OCC)c2)c1O
- IC50 (Table 6, 30 minutes at 37° C.): 7 nM

SMILES: O=C(O)C[C@H](NC(=O)Nc1cccn(Cc2cccs2)c1=O)c1cccc(F)c1
- IC50 (Table 4, 30 minutes at 37° C.): 3000 nM

SMILES: CCCCCc1cn(Cc2ccccc2Cl)c(=O)c(NC(=O)N[C@@H](CC(=O)O)c2ccc(C)cc2)c1O
- IC50 [2]: 40 nM

SMILES: COc1ccc(Cn2ccc(O)c(NC(=O)N[C@@H](CC(=O)O)c3ccc(C)cc3)c2=O)cc1
- IC50 [2]: 20 nM

SMILES: Cc1ccc([C@H](CC(=O)O)NC(=O)Nc2c(O)c(C)cn(Cc3c(Cl)cccc3OCc3ccccc3)c2=O)cc1
- IC50 [1]: 10 nM

SMILES: CN(c1cccc([C@H](CC(=O)O)NC(=O)Nc2c(O)c3c(n(Cc4ccccc4Cl)c2=O)CCC3)c1)S(C)(=O)=O [(3S)-3-{[({1-[(2-chlorophenyl)methyl]-4-hydroxy-2-oxo-2,5,6,7-tetrahydro-1H-cyclopenta[b]pyridin-3-yl}amino)carbonyl]amino}-3-{3-[methyl(methylsulfonyl)amino]phenyl}propanoic acid]
- IC50 [1]: 1.6 nM

SMILES: CCOc1ccc([C@H](CC(=O)O)NC(=O)Nc2c(O)c(C)nn(Cc3ccccc3Cl)c2=O)cc1OCC
- IC50 (Table 6, 30 minutes at 37° C.): 3 nM

SMILES: Cc1ccc([C@H](CC(=O)O)NC(=O)Nc2cccn(Cc3ccc(F)cc3F)c2=O)cc1
- IC50 (Table 4, 30 minutes at 37° C.): 1300 nM

SMILES: O=C(O)C[C@H](NC(=O)Nc1cccn(Cc2ccc(F)cc2)c1=O)c1ccc2c(c1)OCO2
- IC50 (Table 4, 30 minutes at 37° C.): 2000 nM

SMILES: O=C(O)C[C@H](NC(=O)Nc1c(O)ccn(Cc2ccccc2Cl)c1=O)c1ccc(C(F)(F)F)cc1
- IC50 (Table 3, 30 minutes at 37° C.): 25 nM

SMILES: O=C(O)C[C@H](NC(=O)Nc1cccn(Cc2ccccc2Cl)c1=O)c1c(O)cccc1O
- IC50 (Table 4, 30 minutes at 37° C.): 3000 nM

SMILES: CCOc1cccc([C@H](CC(=O)O)NC(=O)Nc2c(O)c(C)cn(Cc3c(Cl)cccc3OCC(C)C)c2=O)c1
- IC50 [1]: 14 nM

SMILES: CCOc1cccc([C@H](CC(=O)O)NC(=O)Nc2c(O)c(C)c(C)n(Cc3c(Cl)cccc3OCC)c2=O)c1
- IC50 [1]: 4 nM

SMILES: Cc1ccc([C@H](CC(=O)O)NC(=O)Nc2c(O)c3c(n(Cc4ccccc4Cl)c2=O)CCCC3)cc1
- IC50 [2]: 20 nM

SMILES: Cc1ccc([C@H](CC(=O)O)NC(=O)Nc2c(Nc3ccccc3)ccn(Cc3ccccc3Cl)c2=O)cc1
- IC50 (Table 3, 30 minutes at 37° C.): 20 nM

SMILES: CCOc1cccc([C@H](CC(=O)O)NC(=O)Nc2c(O)c(C)cn(Cc3c(C)cccc3Cl)c2=O)c1
- IC50 (Table 6, 30 minutes at 37° C.): 4 nM

SMILES: O=C(Nc1cccn(Cc2ccccc2Cl)c1=O)N[C@@H](C(=O)O)c1ccccc1
- IC50 (Table 4, 30 minutes at 37° C.): 80000 nM

SMILES: O=C(O)C[C@H](NC(=O)Nc1c(O)c2c(n(Cc3ccccc3Cl)c1=O)CCC2)c1cccc(OC2CCC2)c1
- IC50 [1]: 17 nM

SMILES: CCOc1cccc([C@H](CC(=O)O)NC(=O)Nc2c(O)c(C)cn(Cc3ccccc3Cl)c2=O)c1 [(3S)-3-[({[1-(2-chlorobenzyl)-4-hydroxy-5-methyl-2-oxo-1,2-dihydropyridin-3-yl]amino}carbonyl)amino]-3-(3-ethoxyphenyl)propanoic acid]
- IC50 [2]: 2 nM

SMILES: COc1cc(OC)cc([C@H](CC(=O)O)NC(=O)Nc2cccn(Cc3cccs3)c2=O)c1
- IC50 (Table 4, 30 minutes at 37° C.): 700 nM

SMILES: CCN(CC)c1cccc([C@H](CC(=O)O)NC(=O)Nc2c(O)c3c(n(Cc4c(C)cccc4Cl)c2=O)CCC3)c1
- IC50 [1]: 10 nM

SMILES: O=C(O)C[C@H](NC(=O)Nc1c(O)c2c(n(Cc3ccccc3Cl)c1=O)CCC2)c1ccc2c(c1)CCO2
- IC50 [1]: 2 nM

SMILES: COc1ccc2cc([C@H](CC(=O)O)NC(=O)Nc3c(O)c(C)cn(Cc4ccccc4Cl)c3=O)ccc2c1
- IC50 (Table 6, 30 minutes at 37° C.): 5 nM

SMILES: CCOc1cccc(Cl)c1Cn1c(C)c(C)c(O)c(NC(=O)N[C@@H](CC(=O)O)c2ccccc2)c1=O
- IC50 [1]: 4 nM

SMILES: Cc1ccc([C@H](CC(=O)O)NC(=O)Nc2c(NCc3cccnc3)ccn(Cc3ccccc3Cl)c2=O)cc1
- IC50 (Table 3, 30 minutes at 37° C.): 20 nM

SMILES: CCCc1cn(Cc2c(Cl)cccc2OC)c(=O)c(NC(=O)N[C@@H](CC(=O)O)c2ccc(C)c(C)c2)c1O
- IC50 (Table 6, 30 minutes at 37° C.): 17 nM

SMILES: Cc1ccc([C@H](CC(=O)O)NC(=O)Nc2c(C)ccn(Cc3c(Cl)cccc3Cl)c2=O)cc1
- IC50 (Table 3, 30 minutes at 37° C.): 20 nM

SMILES: CCOc1cc(OCC)cc([C@H](CC(=O)O)NC(=O)Nc2c(O)c(C)nn(Cc3ccccc3Cl)c2=O)c1
- IC50 (Table 6, 30 minutes at 37° C.): 10 nM

SMILES: Cc1ccc([C@H](CC(=O)O)NC(=O)Nc2c(O)ccn(Cc3c(Cl)cccc3Cl)c2=O)cc1
- IC50 [2]: 13 nM

SMILES: Cc1cn(Cc2ccccc2Cl)c(=O)c(NC(=O)N[C@@H](CC(=O)O)c2ccc(OC(F)(F)F)cc2)c1O
- IC50 (Table 6, 30 minutes at 37° C.): 70 nM

SMILES: O=C(O)C[C@H](NC(=O)Nc1c(O)c2c(n(Cc3ccccc3Cl)c1=O)CCC2)c1cccc(OCC2CC2)c1 [(3S)-3-[({[1-(2-chlorobenzyl)-4-hydroxy-2-oxo-2,5,6,7-tetrahydro-1H-cyclopenta[b]pyridin-3-yl]amino}carbonyl)amino]-3-[3-(cyclopropylmethoxy)phenyl]propanoic acid]
- IC50 [1]: 9 nM
